Our source for the IC50 values is patent publication US20260085053A1, “BENZOFURAN DERIVATIVES AS SIK INHIBITORS AND THE USE THEREOF” (BEONE MEDICINES I GMBH, priority 2023, published 2026).

The target of assay [1] is T1, SIK1 kinase (aa1-303, Thermo Fisher) (Homo sapiens, UniProt P57059).
T1 construct: SIK1 kinase (aa1-303, Thermo Fisher); purchased Thermo Fisher
The assay can be described thus: Biochemical activities determination for SIK1 protein (TR-FRET). The note with it: 110 uM ATP, 0.5 μM STK1 substrate. As to the method: 1. Biochemical Activities Determination for SIK1 Protein
(§1) Compounds were tested for inhibition of SIK1 kinase (aa1-303, Thermo Fisher) in assays based on the time-resolved fluorescence-resonance energy transfer (TR-FRET) methodology. The assays were carried out in 384-well low volume white plates in a reaction mixture containing SIK1 kinase, 110 uM ATP, 0.5 μM STK1 substrate and 0-10 μM compound in buffer containing 25 mM Tris, 0.01% Trition X-100, 0.5 mM EGTA, 5 mM MgCl2, 2.5 mM DTT, pH=7.5. The kinase was incubated with compounds for 60 minutes at room temperature and the reaction was initiated by the addition of ATP and STK1 substrate. After reaction at room temperature for 180 minutes, an equal volume of stop/detection solution was added according to the manufacture's instruction (CisBio Bioassays). The stop/detection solution contained STK Antibody-Cryptate and XL665-conjugated streptavidin (Cat: 62ST1PEC, Cisbio) in Detection Buffer (Cat: 62SDBRDF, Cisbio). Plates were sealed and incubated at room temperature for overnight, and the TR-FRET signals (ratio of fluorescence emission at 665 nm over emission at 620 nm with excitation at 337 nm wavelength) were recorded on a PHERAstar FS plate reader (BMG Labtech). Phosphorylation of STK1 substrate led to the binding of STK Antibody-Cryptate to the biotinylated SIK1 substrate, which places fluorescent donor (Eu^3+ crypate) in close proximity to the accepter (Streptavidin-XL665), thus resulting in a high degree of fluorescence resonance energy transfer from the donor fluorophore (at 620 nm) to the acceptor fluorophore (at 665 nm). […] The IC50 for each compound was derived from fitting the data to the four-parameter logistic equation by Dotmatics.
On the technique in general: In TR-FRET formats the signal depends on donor and acceptor labels being close together.

Assay [2] concerns the target T2, SIK2 kinase (full length, Thermo Fisher) (Homo sapiens, UniProt Q9H0K1).
T2 construct: SIK2 kinase (full length, Thermo Fisher); purchased Thermo Fisher
The assay can be described thus: Biochemical activities determination for SIK2 protein (TR-FRET). The settings on record: 80 uM ATP, 0.5 μM substrate. As to the method: 2. Biochemical Activities Determination for SIK2 Protein
as §1, with “of SIK2” for “of SIK1”, “kinase (full length,” for “kinase (aa1-303,”, “containing SIK2” for “containing SIK1”, “kinase, 80” for “kinase, 110”, “μM […]” for “μM STK1”, “biotinylated STK1” for “biotinylated SIK1”

In assay [3] the target is T3, SIK3 kinase (aa59-365, Thermo Fisher) (Homo sapiens, UniProt Q9Y2K2).
T3 construct: SIK3 kinase (aa59-365, Thermo Fisher); purchased Thermo Fisher
T3 sequence (Q9Y2K2 59-365): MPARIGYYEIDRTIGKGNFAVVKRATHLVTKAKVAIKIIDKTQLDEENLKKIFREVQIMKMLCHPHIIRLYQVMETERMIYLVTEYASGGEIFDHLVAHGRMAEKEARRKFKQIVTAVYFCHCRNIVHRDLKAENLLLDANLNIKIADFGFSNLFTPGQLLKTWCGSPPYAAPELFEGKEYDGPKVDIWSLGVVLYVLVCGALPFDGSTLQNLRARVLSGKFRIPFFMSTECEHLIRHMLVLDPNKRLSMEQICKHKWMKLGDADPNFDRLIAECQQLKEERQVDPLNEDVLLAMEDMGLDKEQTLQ
The assay can be described thus: Biochemical activities determination for SIK3 protein (TR-FRET). The note with it: 125 uM ATP, 0.5 μM STK1 substrate. As to the method: 3. Biochemical Activities Determination for SIK3 Protein
Compounds were tested for inhibition of SIK3 kinase (aa59-365, Thermo Fisher) in assays based on the time-resolved fluorescence-resonance energy transfer (TR-FRET) methodology. The assays were carried out in 384-well low volume white plates in a reaction mixture containing SIK3 kinase, 125 uM ATP, 0.5 μM STK1 substrate and 0-10 μM compound in buffer containing 25 mM Tris, 0.01% Trition X-100, 0.5 mM EGTA, 5 mM MgCl2, 2.5 mM DTT, PH=7.5. The kinase was incubated with compound for 60 minutes at room temperature and the reaction was initiated by the addition of ATP and STK1 substrate. After reaction at room temperature for 180 minutes, an equal volume of stop/detection solution was added according to the manufacture's instruction (CisBio Bioassays). The stop/detection solution contained STK Antibody-Cryptate and XL665-conjugated streptavidin (Cat: 62ST1PEC, Cisbio) in Detection Buffer (Cat: 62SDBRDF, Cisbio). Plates were sealed and incubated at room temperature for overnight, and the TR-FRET signals (ratio of fluorescence emission at 665 nm over emission at 620 nm with excitation at 337 nm wavelength) were recorded on a PHERAstar FS plate reader (BMG Labtech). Phosphorylation of STK1 substrate led to the binding of STK Antibody-Cryptate to the biotinylated STK1 substrate, which places fluorescent donor (Eu^3+ crypate) in close proximity to the accepter (Streptavidin-XL665), thus resulting in a high degree of fluorescence resonance energy transfer from the donor fluorophore (at 620 nm) to the acceptor fluorophore (at 665 nm). […] The IC50 for each compound was derived from fitting the data to the four-parameter logistic equation by Dotmatics.

A value given as a limit tells only on which side of the number the result lay.

T1 sequence (P57059 1-303): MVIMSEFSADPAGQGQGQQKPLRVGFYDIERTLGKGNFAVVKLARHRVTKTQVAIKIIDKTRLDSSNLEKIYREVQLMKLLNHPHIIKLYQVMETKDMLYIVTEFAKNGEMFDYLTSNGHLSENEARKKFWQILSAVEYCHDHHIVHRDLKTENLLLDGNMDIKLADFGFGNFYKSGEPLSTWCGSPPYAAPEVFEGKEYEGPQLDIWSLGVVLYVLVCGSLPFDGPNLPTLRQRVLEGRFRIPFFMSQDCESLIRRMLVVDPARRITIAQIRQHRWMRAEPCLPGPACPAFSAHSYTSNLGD
T2 sequence (Q9H0K1 whole entry): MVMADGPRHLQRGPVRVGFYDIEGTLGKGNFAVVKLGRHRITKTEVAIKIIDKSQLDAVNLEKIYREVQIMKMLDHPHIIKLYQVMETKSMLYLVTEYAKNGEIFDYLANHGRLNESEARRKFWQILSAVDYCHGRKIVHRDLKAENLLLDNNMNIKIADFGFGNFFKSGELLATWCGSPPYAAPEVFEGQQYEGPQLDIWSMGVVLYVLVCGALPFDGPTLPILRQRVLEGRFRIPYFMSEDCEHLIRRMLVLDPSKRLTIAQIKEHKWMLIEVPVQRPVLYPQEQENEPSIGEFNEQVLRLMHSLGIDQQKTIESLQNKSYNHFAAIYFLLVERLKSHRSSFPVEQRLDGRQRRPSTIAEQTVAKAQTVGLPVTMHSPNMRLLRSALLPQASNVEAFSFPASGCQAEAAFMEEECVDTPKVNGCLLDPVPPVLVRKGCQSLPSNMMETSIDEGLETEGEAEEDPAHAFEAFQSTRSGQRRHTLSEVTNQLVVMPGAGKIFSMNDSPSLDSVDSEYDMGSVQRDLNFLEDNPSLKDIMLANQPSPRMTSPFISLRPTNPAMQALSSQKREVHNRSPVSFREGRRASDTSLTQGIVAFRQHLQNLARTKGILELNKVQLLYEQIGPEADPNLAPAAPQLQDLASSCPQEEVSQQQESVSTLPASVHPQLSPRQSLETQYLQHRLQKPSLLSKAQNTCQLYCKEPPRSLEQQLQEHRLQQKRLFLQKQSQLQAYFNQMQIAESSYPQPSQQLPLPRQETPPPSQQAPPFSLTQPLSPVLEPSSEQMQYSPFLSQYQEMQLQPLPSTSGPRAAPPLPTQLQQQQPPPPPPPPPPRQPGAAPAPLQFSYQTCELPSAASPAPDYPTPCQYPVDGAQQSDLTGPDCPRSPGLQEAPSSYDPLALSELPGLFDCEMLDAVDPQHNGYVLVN

A word on the IC50: it is the concentration that gives 50% inhibition. A low value points to greater potency. In the case of `CN1CC[C@H](COc2cc(-c3coc4cc(OCCN5CCCC5)ccc34)cc(OC(F)F)c2C(=O)NC2CC2)C1` [Compound 116, (S)—N-cyclopropyl-2-(difluoromethoxy)-6-((1-methylpyrrolidin-3-yl)methoxy)-4-(6-(2-(pyrrolidin-1-yl)ethoxy)benzofuran-3-yl)benzamide], the IC50 in assay [1] was > 10000 nM; in assay [2] it was 1120 nM; in assay [3] it was > 10000 nM.

For `COc1cc(-c2coc3cc(OCCN4CC[C@H](OC)C4)ccc23)cc(OC(F)F)c1C(=O)N[C@@H]1C[C@@H]1F` [Compound 82, 2-(difluoromethoxy)-N-((1R,2S)-2-fluorocyclopropyl)-6-methoxy-4-(6-(2-((S)-3-methoxypyrrolidin-1-yl)ethoxy)benzofuran-3-yl)benzamide], the IC50 in assay [1] turned out to be 1470 nM; in assay [2], 15 nM; in assay [3], 57 nM.

As to `COc1cc(-c2coc3cc(-c4cnn(C(C)C)c4)ccc23)cc2c1C(=O)N(CC(F)(F)F)CC2` [Example 3, 6-(6-(1-isopropyl-1H-pyrazol-4-yl)benzofuran-3-yl)-8-methoxy-2-(2,2,2-trifluoroethyl)-3,4-dihydroisoquinolin-1 (2H)-one], the IC50 stood at 476 nM in assay [1], 28 nM in assay [2] and 42 nM in assay [3].

`CN1CC(Oc2cc(-c3coc4cc(OCCN5CCCC5)ccc34)cc(OC(F)F)c2C(=O)NC2CC2)C1` [Compound 106, N-cyclopropyl-2-(difluoromethoxy)-6-((1-methylazetidin-3-yl)oxy)-4-(6-(2-(pyrrolidin-1-yl)ethoxy)benzofuran-3-yl)benzamide]: the IC50 in assay [1] is > 10000 nM; in assay [2] it was 2960 nM; in assay [3], > 10000 nM.

In the case of `COc1cc(-c2coc3cc(OCCN4CCCC4)ccc23)cc2c1C(=O)N(CC#N)CC2` [Compound 65, 2-(8-methoxy-1-oxo-6-(6-(2-(pyrrolidin-1-yl)ethoxy)benzofuran-3-yl)-3,4-dihydroisoquinolin-2 (1H)-yl) acetonitrile], the values for the IC50 in assay [1], in assay [2] and in assay [3] were > 10000 nM, 103 nM and 313 nM, respectively.

As for `COc1cc(-c2coc3cc(OCCN4CCCC4)ccc23)cc2c1C(=O)N(CC(F)(F)F)CC2` [Compound 59, 8-methoxy-6-(6-(2-(pyrrolidin-1-yl)ethoxy)benzofuran-3-yl)-2-(2,2,2-trifluoroethyl)-3,4-dihydroisoquinolin-1 (2H)-one], the concentration for half-maximal inhibition (IC50) in assay [1] was > 10000 nM; in assay [2], 77 nM; in assay [3] it was 348 nM.

On to `CN1CC[C@@H]1COc1cc(-c2coc3cc(OCCN4CCCC4)ccc23)cc(OC(F)F)c1C(=O)NC1CC1` [Compound 114, (R)—N-cyclopropyl-2-(difluoromethoxy)-6-((1-methylazetidin-2-yl)methoxy)-4-(6-(2-(pyrrolidin-1-yl)ethoxy)benzofuran-3-yl)benzamide], for which the IC50 in assay [1] was > 10000 nM; in assay [2] it was 745 nM; in assay [3] it was 5490 nM.

`CN1CCC(n2cc(-c3ccc4c(-c5cc6c(c(OC(F)F)c5)C(=O)N(CC#N)CC6)coc4c3)cn2)CC1` [Compound 55, 2-(8-(difluoromethoxy)-6-(6-(1-(1-methylpiperidin-4-yl)-1H-pyrazol-4-yl)benzofuran-3-yl)-1-oxo-3,4-dihydroisoquinolin-2 (1H)-yl) acetonitrile]: the half-maximal inhibitory concentration (IC50) in assay [1] was found to be 301 nM; in assay [2], 3.9 nM; in assay [3], 18 nM.

Turning to `COc1cc(-c2coc3cc(OCC4CCCN4C)ccc23)cc2c1C(=O)N(CC(F)(F)F)CC2` (stereo not drawn) [Compound 61, 8-methoxy-6-(6-((1-methylpyrrolidin-2-yl)methoxy)benzofuran-3-yl)-2-(2,2,2-trifluoroethyl)-3,4-dihydroisoquinolin-1 (2H)-one], the results for the concentration for half-maximal inhibition (IC50) in assay [1], in assay [2] and in assay [3] were > 10000 nM, 147 nM and 322 nM, respectively.

With `COc1cc(-c2coc3cc(-c4cnn(C5CC5)c4)ccc23)cc2c1C(=O)N(CC(F)(F)F)CC2` [Example 4, 6-(6-(1-cyclopropyl-1H-pyrazol-4-yl)benzofuran-3-yl)-8-methoxy-2-(2,2,2-trifluoroethyl)-3,4-dihydroisoquinolin-1 (2H)-one], the IC50 in assay [1] was 728 nM; in assay [2] it was 37 nM; in assay [3] it was 53 nM.

On to `COc1cc(-c2coc3cc(OCCCN4CCOCC4)ccc23)cc(OC(F)F)c1C(=O)N[C@@H]1C[C@@H]1F` [Compound 86, 2-(difluoromethoxy)-N-((1R,2S)-2-fluorocyclopropyl)-6-methoxy-4-(6-(3-morpholinopropoxy)benzofuran-3-yl)benzamide], for which the half-maximal inhibitory concentration (IC50) turned out to be 562 nM in assay [1], 18 nM in assay [2] and 43 nM in assay [3].

For the molecule `COc1cc(-c2coc3cc(OCCN4CCC[C@@H](C)C4)ccc23)cc(OC(F)F)c1C(=O)N[C@@H]1C[C@@H]1F` [Compound 89, 2-(difluoromethoxy)-N-((1R,2S)-2-fluorocyclopropyl)-6-methoxy-4-(6-(2-((R)-3-methylpiperidin-1-yl)ethoxy)benzofuran-3-yl)benzamide], the half-maximal inhibitory concentration (IC50) is 4210 nM in assay [1], 24 nM in assay [2] and 74 nM in assay [3].

Take `COc1cc(-c2coc3cc(-c4cnn(C)c4)ccc23)cc(OC(F)F)c1C(=O)NCC(F)(F)F` [Compound 25, 2-(difluoromethoxy)-6-methoxy-4-(6-(1-methyl-1H-pyrazol-4-yl)benzofuran-3-yl)-N-(2,2,2-trifluoroethyl)benzamide]: the half-inhibitory concentration (IC50) in assay [1] was found to be 195 nM; in assay [2], 15 nM; in assay [3], 26 nM.

Take `COc1cc(-c2coc3cc(OCCN4CCCC4)ccc23)cc(OC(F)F)c1C(=O)N[C@H]1CCCC[C@H]1O` [Compound 125, 2-(difluoromethoxy)-N-((1S,2R)-2-hydroxycyclohexyl)-6-methoxy-4-(6-(2-(pyrrolidin-1-yl)ethoxy)benzofuran-3-yl)benzamide]: the IC50 in assay [1] was > 10000 nM; in assay [2], 385 nM; in assay [3], 2490 nM.
